According to patent US11447533B2, “Antimicrobial and anticancer peptides and conjugates and compositions, methods, articles and kits relating thereto” (George Mason Research Foundation, Inc., priority 2018, dated 2022):

What was measured:
[1] = test system: B. cereus ATCC 11778; assay: Antimicrobial efficacy (resazurin virtual colony count); assay type: cell-based, Bacillus cereus; conditions: DPBS
Protocol: Antimicrobial Studies. The phosphate buffers used for antimicrobial assays were supplemented with non-nitrogenous energy source, 0.1% (w/v) glucose. To conduct antimicrobial assays, bacterial strains were first suspended in respective buffers. E. coli (ATCC 25922) and B. cereus (ATCC 11778) were grown in MHB II up to OD600 nm˜1 and stored as frozen stock in 20% glycerol at −80° C. Occasionally they were thawed and enumerated by serial dilution and spreading on MHB II agar plates. The concentrations of the frozen stocks of E. coli and B. cereus strains were 1.0-1.1*10^8 CFU/mL with OD600 nm˜0.8. In case of other bacterial strains, they were grown on the days of experiment up to OD600 nm˜1-1.5 and then adjusted to OD600 nm˜0.8. The growth media of the drug-resistant bacterial strains were supplemented with few of the respective antibiotics against which they are resistant. […]
Antimicrobial assays in different phosphate buffers and serum were conducted by adapting, with necessary modifications a fast high-throughput method based on Virtual Colony Count technique and later modified by incorporating the use of resazurin. At first serial dilution of a microbial strain in respective buffer was poured in the wells of 96 well polypropylene microplate and was then added with same volume of 2× MHB II supplemented with 80 μg/mL resazurin and incubated at 35° C. in a Gemini EM Microplate Reader (Molecular Devices) overnight with intermittent shaking. As the microbe grows it reduces non-fluorescent resazurin to fluorescent resorufin and the fluorescent intensity of each well were measured (excitation=570 nm, emission=590 nm) each 5 min for 15 hours. The time (t, min) to reach a certain fluorescence (RFU=20000 with respect to the starting fluorescence) was correlated with the initial bacterial concentration (in CFU/mL) in the particular well to obtain a calibration plot of the form: Log([Bacteria],CFU/mL)=b+m*t Equation 4: […]

[2] = test system: E. coli ML35p inner membrane; assay: Inner membrane disruption (β-galactosidase leakage, ONPG); assay type: cell-based, Escherichia coli
Protocol: Interactions with Bacterial Membranes. Interaction of the peptides with bacterial membranes in different phosphate buffers were evaluated using E. coli ML35p, constructed in our laboratory. At first, competent cells of E. coli ML35 were produced by conventional competent cell preparation method, then transformed with pBR322 plasmid. Transformed colonies were selected after growing on Luria-agar containing 50 μg/mL ampicillin. A single transformed colony was grown in presence of ampicillin first in Luria broth and then in MHBII and stored as 20% glycerol stock at −80° C. This frozen stock, on the day of the experiment, was thawed and grown in MHBII containing ampicillin up to OD600 nm=0.8-0.9, washed with PBS and then suspended in the respective buffer up to the required OD600 nm for use.
Membrane Disruptions. The outer and the inner membrane disruptions by the peptides were evaluated by incubating bacterial suspension with peptides and then measuring the activity of enzymes leaked out of the cells. 100 μL of 10× concentration of peptide in water was incubated with 900 μL bacterial suspension (OD600 nm˜0.1) in respective buffer for 3 hours at room temperature with gentle rotation. […]
The inner membrane disruption was tested by using the activity of β-galactosidase present in the […] of E. coli ML35p, which lacks lactose-permease. Peptides when disrupt the inner membrane enough to cause β-galactosidase to come out, the degree of disruption can be measured by the virtue of the kinetics of the enzyme and using a substrate called ortho-Nitrophenyl-β-galactoside (ONPG). β-galactosidase mediated hydrolyzed product of ONPG has an absorbance λmax=420 nm. Supernatant collected from the incubation of peptide with bacteria was added with ONPG solution in DPBS and incubated at 35° C. and continuous absorbance readings. The slope of the linear section of the absorbance curve (absorbance vs time), was used as a measure of membrane disruption and the % Disruption was calculated as: Equation 8: […]

Sequence	antimicrobial efficacy, in words [1]	inner membrane disruption relative to HCMAB ([2]; 10 mM phosphate buffer)	inner membrane disruption relative to HCMAB ([2]; DPBS, HCMAB = 100%)
KRAKKFFKKLK (SEQ ID NO: 4) [ATRA1-A]	not effective		
KRFKKFFKKLK (SEQ ID NO: 2) [ATRA1, first 11 residues of NA-CATH]	somewhat effective	highest	below 10%
RRWKRFFKRWK (SEQ ID NO: 15) [ATRA1-R3W2]			highest degree of inner membrane disruption
